Measurements published in patent US10837044B2, “Automated method for analyzing and interpreting an antimicrobial susceptibility” (FONDATION MEDITERRANEE INFECTION, priority 2014, dated 2020).

Assays:
Assay in all cases: antibiogram by diffusion on Mueller-Hinton agar with antibiotic wafers
Type in all cases: cell-based
[1] = tested on: Enterobacter aerogenes; conditions: Table C1, six wafers, disk loads of Table B
Protocol: (§1) The inoculum was prepared by making a suspension of bacteria directly from colonies put into solution in tubes of sterile water so that the solution presented accurate opacity as determined with a spectrophotometer equivalent to the opacity of a 0.5 standard in the McFarland range. This bacterial suspension concentration is standardized since a more concentrated inoculum would lead to smaller diameters for the inhibition zone, and vice versa.
(§2) The inoculum corresponds to concentrations of about 10^8 CFU/mL for Escherichia coli, Klebsiella pneumoniae, Proteus mirabilis, Klebsiella oxytoca, Enterobacter cloacea, Enterobacter aerogenes, Entercoccus faecalis, Pseudomonas aeruginosa, Staphylococcus aureus, and Staphylococcus epidermidis. These are the ten species bacteria that are encountered the most frequently in human pathologies.
(§3) 1.2) The bacterial sample was deposited on a solid culture medium in a petri dish having a diameter of 90 mm or in a square dish having a side of 120 mm, the medium being constituted by a Mueller-Hinton agar specific for (EUCAST) antibiograms. Ideally, it should be used in the 15 minutes (min) following preparation of the suspension.
(§4) Seeding was done by the method of diffusion on an agar medium by flooding in which excess bacterial suspension was added to the Mueller-Hinton agar. After homogenizing, excess liquid was discarded in order to avoid over-inoculating the dishes. It is necessary to wait beforehand for the surface of the agar to be dry in order to eliminate any trace of moisture encouraging bacterial invasion.
(§5) The disks of the antibiotic wafers were deposited within 15 min after inoculating the agar. The antibiotic impregnated disks were deposited using an automatic dispenser that placed the disks firmly on the surface of the inoculated and dried agar. The number of disks deposited per dish was limited because of inhibition zone overlap and in order to limit interference between antibiotics. It is important for the inhibition diameters to be measurable. The antibiograms were then incubated at 37° C. for 18 hours (h) to 24 h.
(§6) The antibiotic wafers were made of high quality absorbent paper with a diameter of 6 mm and they were impregnated with antibiotics at concentrations in the range 1 micrograms (μg) to 300 μg approximately, depending on the antibiotic.
(§7) In the examples below, reference disks were used as sold by the suppliers i2a (Montpellier, France), BD (Becton Dickinson, USA), Bio-Rad (Hercules, USA), Biomerieux (Marcy l′Etoile, France) containing the following antibiotics and carrying the following codes and the following doses: AMX (amoxicillin) 25 μg: AMC (amoxicillin-clavulanic acid) 20 μg-10 μg; GM for gentamicin, 15 μg; SXT (trimethoprim-sulfamethoxazole) 1.25/23.75 μg; TIC (ticarcillin) 75 μg; TCC (ticarcillin-clavulanic acid) […]; TZP (piperacillin-tazobactam) 75/10 μg; CAZ (ceftazidime) 30 μg; IMP or IPM (imipeneme) 10 μg; COL (colistin) 50 μg; FOX (cefoxitine) 30 μg; VAN (vancomycin) 30 μg; TEC (teicoplanin) 30 μg; CLI or DA (clindamycin) 2 μg; CRO (ceftriaxone) 30 μg; CIP (ciprofloxacin) 5 μg; OFX (ofloxacin) 5 μg; CTX (cefotaxime) 5 μg; AN or AK (amikacin) 30 μg; TM (tobramycin) 10 μg; FOX (cefoxitine) 30 μg; ATM (aztreonam) 30 μg; ERT (ertapenem) 10 μg; FF (fosfomycin) 200 μg; DO (doxycycline) 30 μg; K (kanamycin) 1000 μg; L (lincomycin) 15 μs; LNZ (linezolid) 10 μg; AN (nalidixic acid) 30 μg; NOR (norfloxacin) 10 μg; PT (pristinamycin) 15 μg; RA (rifampicin) 5 μg; and E (erythromycin) 15 μg.

[2] = tested on: Enterobacter cloacea; conditions: Table C1, six wafers, disk loads of Table B
Protocol: as §1, §2, §3, §4, §5, §6, §7

[3] = tested on: Escherichia coli; conditions: for resistance (I, R) or sensitivity (S): Table C1, disk loads of Table B; for resistant (I/R) or sensitive (S): Table C2, square dish
Protocol: as §1, §2, §3, §4, §5, §6, §7

[4] = tested on: Klebsiella oxytoca; conditions: Table C1; K. oxytoca phenotype Wild; six wafers, disk loads of Table B
Protocol: as §1, §2, §3, §4, §5, §6, §7

[5] = tested on: Klebsiella pneumoniae; conditions: for resistance (I, R) or sensitivity (S): Table C1, six wafers, disk loads of Table B; for resistant (I/R) or sensitive (S): Table C2, sixteen wafers, square dish
Protocol: as §1, §2, §3, §4, §5, §6, §7

[6] = tested on: Proteus mirabilis; conditions: Table C1, six wafers, disk loads of Table B
Protocol: as §1, §2, §3, §4, §5, §6, §7

[7] = tested on: Pseudomonas aeruginosa; conditions: Table C1, six wafers, disk loads of Table B
Protocol: as §1, §2, §3, §4, §5, §6, §7

[8] = E. coli phenotype BSBL, six wafers
[9] = E. coli phenotype Carbapenemase, six wafers
[10] = E. coli phenotype Hl cephalosporinase, six wafers
[11] = E. coli phenotype Hl penicillinase, six wafers
[12] = E. coli phenotype Inhibitor resistant penicillinase, six wafers
[13] = E. coli phenotype Ll penicillinase, six wafers
[14] = E. coli phenotype Wild, six wafers in a circle
[15] = K. pneumoniae phenotype Carbapenemase
[16] = K. pneumoniae phenotype Hl cephalosporinase
[17] = K. pneumoniae phenotype Hl penicillinase
[18] = K. pneumoniae phenotype Ll penicillinase
[19] = P. mirabilis phenotype Hl cephalosporinase
[20] = P. mirabilis phenotype Hl penicillinase
[21] = P. mirabilis phenotype Inhibitor resistant penicillinase
[22] = P. mirabilis phenotype Ll penicillinase
[23] = P. aeruginosa Abnormal phenotype
[24] = P. aeruginosa phenotype Carbapenemase
[25] = P. aeruginosa phenotype Penicillinase
[26] = P. aeruginosa phenotype Selective imipenem permeability
[27] = E. coli phenotype Cephalosporinase + R to fluoroquinolones + R to cotrimoxazole + partial R to aminosides, sixteen wafers
[28] = E. coli phenotype Hl penicillinase + R to fluoroquinolones + R to cotrimoxazole + partial R to aminosides, sixteen wafers
[29] = E. coli phenotype Wild, sixteen wafers in a rectangular grid
[30] = K. pneumoniae phenotype Cephalosporinase + R to aminosides + R to cotrimoxazole

Molecule | resistance (I, R) or sensitivity (S) ([1]; E. aerogenes phenotype BSBL) | resistance (I, R) or sensitivity (S) ([1]; E. aerogenes phenotype Wild) | resistance (I, R) or sensitivity (S) ([2]; E. cloacae phenotype BSBL) | resistance (I, R) or sensitivity (S) ([2]; E. cloacae phenotype Wild) | resistance (I, R) or sensitivity (S) [3, 8] | resistance (I, R) or sensitivity (S) [3, 9] | resistance (I, R) or sensitivity (S) [3, 10] | resistance (I, R) or sensitivity (S) [4] | resistance (I, R) or sensitivity (S) ([5]; K. pneumoniae phenotype BSBL) | resistance (I, R) or sensitivity (S) [5, 15] | resistance (I, R) or sensitivity (S) [5, 16] | resistance (I, R) or sensitivity (S) [5, 17] | resistance (I, R) or sensitivity (S) [5, 18] | resistance (I, R) or sensitivity (S) ([5]; K. pneumoniae phenotype Wild) | resistance (I, R) or sensitivity (S) [7, 23] | resistance (I, R) or sensitivity (S) ([7]; P. aeruginosa phenotype BSBL) | resistance (I, R) or sensitivity (S) [7, 24] | resistance (I, R) or sensitivity (S) [7, 25] | resistance (I, R) or sensitivity (S) [7, 26] | resistance (I, R) or sensitivity (S) ([7]; P. aeruginosa phenotype Wild) | further results
CO/N=C(\C(=O)N[C@@H]1C(=O)N2C(C(=O)[O-])=C(C[N+]3(C)CCCC3)CS[C@H]12)c1csc(N)n1 [FEP, cefepime] | R/I | S | R | S | R | R | R | S | R | R | S | S | S | S | R | I/R | R | S | S | S | resistance (I, R) or sensitivity (S) [3, 11]: S; resistance (I, R) or sensitivity (S) [3, 12]: S; resistance (I, R) or sensitivity (S) [3, 13]: S; resistance (I, R) or sensitivity (S) [3, 14]: S; resistance (I, R) or sensitivity (S) [6, 19]: R; resistance (I, R) or sensitivity (S) [6, 20]: S; resistance (I, R) or sensitivity (S) [6, 21]: S; resistance (I, R) or sensitivity (S) [6, 22]: S; resistance (I, R) or sensitivity (S) ([6]; P. mirabilis phenotype Wild): S
C[C@@H](O)[C@H]1C(=O)N2C(C(=O)O)=C(SCCN=CN)C[C@H]12 [IMP, imipenem] | S | S | S | S | S | R | S | S | S | R | S | S | S | S | S | S | R | S | I | S | resistance (I, R) or sensitivity (S) [3, 11]: S; resistance (I, R) or sensitivity (S) [3, 12]: S; resistance (I, R) or sensitivity (S) [3, 13]: S; resistance (I, R) or sensitivity (S) [3, 14]: S; resistant (I/R) or sensitive (S) [3, 27]: S; resistant (I/R) or sensitive (S) [3, 28]: S; resistant (I/R) or sensitive (S) [3, 29]: S; resistant (I/R) or sensitive (S) [5, 30]: S; resistant (I/R) or sensitive (S) ([5]; K. pneumoniae phenotype Wild): S; resistance (I, R) or sensitivity (S) [6, 19]: S; resistance (I, R) or sensitivity (S) [6, 20]: S; resistance (I, R) or sensitivity (S) [6, 21]: S; resistance (I, R) or sensitivity (S) [6, 22]: S; resistance (I, R) or sensitivity (S) ([6]; P. mirabilis phenotype Wild): S
colistin | S | S | S | S | – | – | – | S | S | S | S | S | S | S | – | – | – | – | – | – | resistant (I/R) or sensitive (S) [3, 27]: S; resistant (I/R) or sensitive (S) [3, 28]: S; resistant (I/R) or sensitive (S) [3, 29]: S; resistant (I/R) or sensitive (S) [5, 30]: S; resistant (I/R) or sensitive (S) ([5]; K. pneumoniae phenotype Wild): S
piperacillin-tazobactam [TZP] | R | S | R | S | – | – | – | S | R/I | R | I/R | S/I/R | R | S | R/S | I/R | R | I/S | S | S | –
